Data on 6 compounds can be found in DBAASP.

Values after ≈ are worked out from the molar mass of the structure shown.

Test systems include Escherichia coli UB1005; Listeria monocytogenes; Escherichia coli BW25113; Aeromonas hydrophila; Escherichia coli; Staphylococcus aureus; Vibrio alginolyticus; Vibrio fluvialis; Vibrio parahaemolyticus.
Assay in all cases: ≥ marks a high value that may be exact or a test limit, other limits are often not marked, values filed in µg/mL are converted to µM
For test [1], the system named is Bacillus subtilis KCTC 1998.
Test [2] relates to Candida albicans KCTC 7270.
Test [3] deals with Escherichia coli ATCC 25922.
For test [4], the system named is Escherichia coli CCARM 1229.
Test [5] concerns Escherichia coli CCARM 1238.
Test [6] has as its system Listeria monocytogenes KCTC 3710.
Test [7] concerns Pseudomonas aeruginosa 4007.
The test system of test [8] is Pseudomonas aeruginosa 4891.
The subject of test [9] is Pseudomonas aeruginosa ATCC 27853.
Test [10] has as its system Salmonella typhimurium KCTC 1926.
The test system of test [11] is Staphylococcus aureus ATCC 25923.
Test [12] has as its system Staphylococcus aureus CCARM 3090.
Test [13] has as its system Staphylococcus aureus CCARM 3518.
The subject of test [14] is Trichosporon beigelii KCTC 7707.
Test [15] relates to Enterococcus faecalis ATCC 29212.
The test system of test [16] is Pseudomonas aeruginosa K799.
Test [17] relates to Salmonella enterica subsp. enterica serovar Typhimurium ATCC 14028s.
The test system of test [18] is Staphylococcus epidermidis.
For test [19], the system named is Acinetobacter baumannii ATCC 19606.
Test [20] deals with Escherichia coli BW25113 ΔsbmA.
Test [21] deals with Klebsiella pneumoniae ATCC 700603.
Test [22] has as its system Salmonella enterica subsp. enterica serovar Typhimurium ATCC 14028.

As a reminder, the MIC is the lowest concentration that inhibits growth of the organism. Lower therefore signals inhibition by little substance. In the case of `CC[C@H](C)[C@H](NC(=O)CNC(=O)[C@H](CCC(N)=O)NC(=O)[C@H](Cc1ccccc1)NC(=O)[C@@H](NC(=O)[C@H](CCCCN)NC(=O)[C@H](CCCCN)NC(=O)[C@H](CC(C)C)NC(=O)[C@H](C)NC(=O)[C@H](CC(N)=O)NC(=O)[C@H](CC(C)C)NC(=O)CN)C(C)C)C(=O)N[C@@H](Cc1cnc[nH]1)C(=O)N[C@@H](CCC(=O)O)C(=O)N[C@@H](C)C(=O)N[C@H](C(=O)N[C@@H](CCCCN)C(=O)N[C@@H](CCCCN)C(=O)N[C@H](C(=O)N[C@@H](CC(N)=O)C(=O)N[C@@H](CC(N)=O)C(=O)N[C@@H](Cc1cnc[nH]1)C(=O)N[C@H](C(=O)N[C@@H](CCC(N)=O)C(N)=O)C(C)C)[C@@H](C)CC)[C@@H](C)CC` [GLNALKKVFQGIHEAIKKINNHVQ], the MIC in test [1] is 8 µM (≈ 21.6 µg/mL); in test [2] it was at least 32 µM; in test [3], 4 µM (≈ 10.8 µg/mL); in test [4], 4 µM (≈ 10.8 µg/mL); in [5], 4 µM (≈ 10.8 µg/mL); in test [6], 8 µM (≈ 21.6 µg/mL). Further, the MIC in test [7] came out at 2 µM (≈ 5.4 µg/mL); in [8], 8 µM (≈ 21.6 µg/mL); in test [9] it was 2 µM (≈ 5.4 µg/mL); in test [10], 4 µM (≈ 10.8 µg/mL); in test [11] it was 8 µM (≈ 21.6 µg/mL); in test [12], 8 µM (≈ 21.6 µg/mL). Moreover, the MIC is 8 µM (≈ 21.6 µg/mL) in [13] and at least 32 µM in [14].

Regarding `CC[C@H](C)[C@@H]1NC(=O)[C@H](C(C)C)NC(=O)[C@H](C(C)C)NC(=O)[C@H]([C@@H](C)CC)NC(=O)[C@@H]2CCCN2C(=O)[C@@H](NC(=O)[C@H](CCCCN)NC(=O)[C@@H](N)CCCCN)CSSC[C@@H](C(=O)N[C@@H](CCCCN)C(=O)O)NC(=O)[C@H](C(C)C)NC(=O)[C@H](CCCN=C(N)N)NC1=O` [KKCPIVVIRVCK], the MIC in [15] was over 46.2 µM; against Escherichia coli UB1005 it was 11.5 µM (≈ 16 µg/mL); against Listeria monocytogenes, 11.5 µM (≈ 16 µg/mL); in test [16], at least 46.2 µM; in [17], 23.1 µM (≈ 32 µg/mL); in [11], over 46.2 µM. For the same compound, the MIC in [18] is at least 46.2 µM.

On to `CC[C@H](C)[C@H](NC(=O)[C@@H]1CCCN1)C(=O)N[C@@H](CCCN=C(N)N)C(=O)N[C@@H](CCCN=C(N)N)C(=O)N1CCC[C@H]1C(=O)N1CCC[C@H]1C(=O)N[C@H](C(=O)N[C@@H](CCCN=C(N)N)C(=O)N1CCC[C@H]1C(=O)N1CCC[C@H]1C(=O)N[C@@H](Cc1ccccc1)C(=O)N[C@@H](Cc1ccc(O)cc1)C(=O)N1CCC[C@H]1C(=O)N1CCC[C@H]1C(=O)N[C@@H](Cc1ccccc1)C(=O)N[C@@H](CCCN=C(N)N)C(=O)N1CCC[C@H]1C(=O)N1CCC[C@H]1C(=O)N[C@H](C(=O)N[C@@H](CCCN=C(N)N)C(=O)N1CCC[C@H]1C(=O)O)[C@@H](C)CC)[C@@H](C)CC` [PIRRPPIRPPFYPPFRPPIRP], for which the MIC was over 64 µM in [19]; over 64 µM in test [3]; at least 64 µM in test [20]; at least 64 µM against Escherichia coli BW25113; over 64 µM in test [21]; over 64 µM in test [9]. Further, the MIC in test [22] and in test [11] was over 64 µM throughout.

For the compound `CC[C@H](C)[C@H](NC(=O)[C@@H]1CCCN1C(=O)[C@@H]1CCCN1C(=O)[C@H](CCCN=C(N)N)NC(=O)[C@H](Cc1ccccc1)NC(=O)[C@@H](N)CCCN=C(N)N)C(=O)N[C@@H](CCCN=C(N)N)C(=O)N[C@@H](CCCN=C(N)N)C(=O)N1CCC[C@H]1C(=O)N1CCC[C@H]1C(=O)N[C@H](C(=O)N[C@@H](CCCN=C(N)N)C(=O)N1CCC[C@H]1C(=O)N1CCC[C@H]1C(=O)N[C@@H](Cc1ccccc1)C(=O)O)[C@@H](C)CC` [RFRPPIRRPPIRPPF], the MIC is over 64 µM in [19]; 64 µM (≈ 122 µg/mL) in [3]; at least 64 µM in [20]; at least 64 µM with Escherichia coli BW25113; over 64 µM in test [21]; over 64 µM in test [9]. The MIC in [22] and in test [11] was over 64 µM each time.

As for `CC[C@H](C)[C@H](NC(=O)CNC(=O)[C@H](CCC(N)=O)NC(=O)[C@H](Cc1c[nH]c2ccccc12)NC(=O)[C@@H](NC(=O)[C@H](CCCCN)NC(=O)[C@H](CCCCN)NC(=O)[C@H](CC(C)C)NC(=O)[C@H](C)NC(=O)[C@H](CC(N)=O)NC(=O)[C@H](CC(C)C)NC(=O)[C@@H](N)Cc1c[nH]c2ccccc12)C(C)C)C(=O)N[C@@H](Cc1cnc[nH]1)C(=O)N[C@@H](CCC(=O)O)C(=O)N[C@@H](C)C(=O)N[C@H](C(=O)N[C@@H](CCCCN)C(=O)N[C@@H](CC(C)C)C(=O)N[C@H](C(=O)N[C@@H](Cc1c[nH]c2ccccc12)C(=O)N[C@@H](CC(N)=O)C(=O)N[C@@H](Cc1c[nH]c2ccccc12)C(=O)N[C@H](C(=O)N[C@@H](CCC(N)=O)C(N)=O)C(C)C)[C@@H](C)CC)[C@@H](C)CC` [WLNALKKVWQGIHEAIKLIWNWVQ], the MIC in [1] is at least 32 µM; in test [2], at least 32 µM; in [3] it was 16 µM (≈ 47.6 µg/mL); in test [4] it was at least 32 µM; in [5] it was at least 32 µM; in test [6], at least 32 µM. Also, the MIC is at least 64 µM in test [7]; at least 64 µM in [8]; 16 µM (≈ 47.6 µg/mL) in test [9]; 16 µM (≈ 47.6 µg/mL) in test [10]; 32 µM (≈ 95.2 µg/mL) in [11]; at least 32 µM in test [12]. The MIC in [13] and in [14] was at least 32 µM each time.

With `CC[C@H](C)[C@H](NC(=O)[C@H](Cc1cnc[nH]1)NC(=O)[C@H](C)NC(=O)[C@@H](NC(=O)[C@H](CC(N)=O)NC(=O)[C@H](Cc1cnc[nH]1)NC(=O)[C@H](CC(C)C)NC(=O)[C@H](C)NC(=O)CNC(=O)[C@H](Cc1ccc(O)cc1)NC(=O)[C@@H](N)Cc1ccc(O)cc1)[C@@H](C)O)C(=O)N[C@H](C(=O)N[C@@H](CC(C)C)C(=O)NCC(=O)N[C@@H](CCCN=C(N)N)C(=O)O)C(C)C` [YYGALHNTAHIVLGR], the MIC is at least 74.2 µM in the test with Aeromonas hydrophila; 74.2 µM (≈ 125 µg/mL) in the test on Escherichia coli; over 148 µM against Staphylococcus aureus; 9.26 µM (≈ 15.6 µg/mL) against Vibrio alginolyticus; at least 148 µM against Vibrio fluvialis; at least 148 µM with Vibrio parahaemolyticus.
